Reference: ChEMBL document CHEMBL1201862, “PubChem BioAssay data set” (2004)
Activity calls are given as the source filed them.

Key:
[1] = target: G2/mitotic-specific cyclin-B1 (Homo sapiens, UniProt P14635); experiment: G2/M cell cycle arrest in HeLa, late-stage follow-up, mechanism study for Wee1 degradation inhibitor project, FACS, panel member Cyclin B Degradation (AID 2088)
[2] = target: Wee1-like protein kinase (Homo sapiens, UniProt P30291); experiment: G2/M cell cycle arrest in HeLa, late-stage follow-up, mechanism study for Wee1 degradation inhibitor project, FACS, panel member Wee1 Degradation (AID 2088)
[3] = target: Hexokinase HKDC1 (Homo sapiens, UniProt Q2TB90); experiment: HKDC1 hexokinase inhibitors, dose response, biochemical, W721R variant (AID 504729); type: functional
Hexokinase HKDC1, sequence (Q2TB90 whole entry): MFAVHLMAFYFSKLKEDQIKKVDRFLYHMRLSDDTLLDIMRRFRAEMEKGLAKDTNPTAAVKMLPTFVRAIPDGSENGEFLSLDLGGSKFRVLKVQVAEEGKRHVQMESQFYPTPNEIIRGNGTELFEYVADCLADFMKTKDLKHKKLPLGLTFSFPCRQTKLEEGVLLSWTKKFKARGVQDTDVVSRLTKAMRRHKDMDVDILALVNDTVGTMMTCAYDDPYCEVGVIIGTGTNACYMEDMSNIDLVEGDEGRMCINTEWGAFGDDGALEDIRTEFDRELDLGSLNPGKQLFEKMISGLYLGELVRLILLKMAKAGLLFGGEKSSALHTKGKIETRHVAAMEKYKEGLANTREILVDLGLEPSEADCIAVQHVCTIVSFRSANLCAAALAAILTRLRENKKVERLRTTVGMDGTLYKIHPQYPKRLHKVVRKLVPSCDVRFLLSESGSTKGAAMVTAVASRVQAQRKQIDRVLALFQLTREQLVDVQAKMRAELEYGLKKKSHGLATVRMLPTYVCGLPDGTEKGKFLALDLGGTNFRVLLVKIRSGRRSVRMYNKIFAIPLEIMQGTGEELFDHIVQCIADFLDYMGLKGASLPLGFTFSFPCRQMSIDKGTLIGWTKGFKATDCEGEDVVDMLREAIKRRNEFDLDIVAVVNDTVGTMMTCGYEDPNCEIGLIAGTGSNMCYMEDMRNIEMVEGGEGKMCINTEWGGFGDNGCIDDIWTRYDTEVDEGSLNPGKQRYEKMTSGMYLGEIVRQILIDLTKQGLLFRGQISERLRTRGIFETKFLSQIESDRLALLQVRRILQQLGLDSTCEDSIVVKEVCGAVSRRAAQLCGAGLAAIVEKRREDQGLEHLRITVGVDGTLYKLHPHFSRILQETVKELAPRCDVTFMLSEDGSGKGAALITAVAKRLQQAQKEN

[4] = target: T1, Protein RecA (Mycobacterium tuberculosis, UniProt P9WHJ3); experiment: Fluorescence Cell-Free Homogeneous Dose Retest to Identify Inhibitors of RecA-Intein Splicing Activity. [Related pubchem assays (depositor defined):AID2097, AID2223, AID489010, AID492950]; type: functional
T1 sequence (P9WHJ3 whole entry): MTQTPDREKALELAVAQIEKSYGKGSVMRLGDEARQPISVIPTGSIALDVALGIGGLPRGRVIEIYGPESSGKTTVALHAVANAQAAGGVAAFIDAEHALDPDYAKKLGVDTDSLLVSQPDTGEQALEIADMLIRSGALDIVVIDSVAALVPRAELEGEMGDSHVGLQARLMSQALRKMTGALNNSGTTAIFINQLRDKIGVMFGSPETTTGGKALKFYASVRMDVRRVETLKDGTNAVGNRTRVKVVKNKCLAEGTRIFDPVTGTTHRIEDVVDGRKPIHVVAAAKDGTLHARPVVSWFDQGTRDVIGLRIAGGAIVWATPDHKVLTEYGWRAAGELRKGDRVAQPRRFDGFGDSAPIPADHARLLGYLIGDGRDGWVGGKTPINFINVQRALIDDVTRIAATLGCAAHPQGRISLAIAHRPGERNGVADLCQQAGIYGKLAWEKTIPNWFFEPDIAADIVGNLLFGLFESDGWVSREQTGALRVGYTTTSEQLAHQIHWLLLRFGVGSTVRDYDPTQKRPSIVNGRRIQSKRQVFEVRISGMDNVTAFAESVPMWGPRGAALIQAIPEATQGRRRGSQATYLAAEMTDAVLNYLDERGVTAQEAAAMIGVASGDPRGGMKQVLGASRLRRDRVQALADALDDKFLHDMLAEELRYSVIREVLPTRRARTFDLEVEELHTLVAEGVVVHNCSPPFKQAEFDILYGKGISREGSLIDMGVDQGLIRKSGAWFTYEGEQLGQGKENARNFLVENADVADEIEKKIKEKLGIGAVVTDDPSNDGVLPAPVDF

[5] = target: T2, Replicative DNA helicase DnaB (Mycobacterium tuberculosis, UniProt P9WMR3); experiment: DnaB intein splicing inhibitors, dose response, biochemical, cell-free fluorescence (AID 449749); type: functional
T2 sequence (P9WMR3 whole entry): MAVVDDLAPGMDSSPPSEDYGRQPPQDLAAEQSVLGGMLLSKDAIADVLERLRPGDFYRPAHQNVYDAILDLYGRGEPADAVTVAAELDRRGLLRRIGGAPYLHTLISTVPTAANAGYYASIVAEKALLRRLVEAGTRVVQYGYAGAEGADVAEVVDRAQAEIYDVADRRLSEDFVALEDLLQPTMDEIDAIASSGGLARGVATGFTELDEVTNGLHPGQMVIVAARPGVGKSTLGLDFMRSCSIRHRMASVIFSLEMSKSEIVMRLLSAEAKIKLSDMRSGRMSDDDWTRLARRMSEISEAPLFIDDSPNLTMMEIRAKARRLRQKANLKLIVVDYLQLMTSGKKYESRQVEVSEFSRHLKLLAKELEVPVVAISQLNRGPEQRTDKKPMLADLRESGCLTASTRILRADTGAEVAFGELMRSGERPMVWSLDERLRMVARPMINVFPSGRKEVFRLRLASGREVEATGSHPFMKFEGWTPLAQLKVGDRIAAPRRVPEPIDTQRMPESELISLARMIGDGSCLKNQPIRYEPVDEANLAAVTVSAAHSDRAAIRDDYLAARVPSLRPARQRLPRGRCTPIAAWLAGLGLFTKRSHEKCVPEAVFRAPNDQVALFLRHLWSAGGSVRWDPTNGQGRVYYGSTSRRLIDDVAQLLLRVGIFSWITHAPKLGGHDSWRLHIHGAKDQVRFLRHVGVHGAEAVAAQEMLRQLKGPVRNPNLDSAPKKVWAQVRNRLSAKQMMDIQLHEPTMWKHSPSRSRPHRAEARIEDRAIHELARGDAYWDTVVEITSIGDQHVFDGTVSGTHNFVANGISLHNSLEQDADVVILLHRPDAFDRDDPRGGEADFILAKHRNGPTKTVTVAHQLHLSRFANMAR

[6] = target: Dual specificity protein phosphatase 3 (Homo sapiens, UniProt P51452); experiment: VHR1 inhibitor Ki determination, SAR follow-up, biochemical, colorimetric (AID 2004)
[7] = target: Acyl-homoserine lactone acylase PvdQ (Pseudomonas aeruginosa (strain LESB58), UniProt Q9I194); experiment: P. aeruginosa PvdQ acylase inhibitors, dose response, biochemical, fluorescence, plate reader and imaging, cherry-picks (AID 493231)
[8] = test system: Vibrio harveyi; experiment: Quorum Sensing, LuxS, LuxPQ Measured in Microorganism System Using Plate Reader - 2035-01_Inhibitor_DoseNoFile_DryPowder_Activity. [Related pubchem assays (depositor defined):AID2106]; type: functional, organism-based
[9] = target: Melanin-concentrating hormone receptor 1 (Homo sapiens, UniProt Q99705); experiment: Late-stage fluorescence-based counterscreen for antagonists of the G-protein coupled receptor 7 (GPR7): cell-based dose response assay to identify antagonists of the melanin-concentrating hormone receptor 1 (MCHR1). [Related pubchem assays (depositor defined):AID1861, AID1880, AID1952, AID2148, AID2251, AID2257, AID485339]; type: functional;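 further: stimulated with 30 nM MCH peptide agonist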
[10] = target: Scavenger receptor class B member 1 (Mus musculus, UniProt Q61009); experiment: inhibitors of SR-BI mediated HDL lipid uptake, dose response, ldlA[mSR-BI] cells, fluorescence, cherry pick (AID 493194); type: functional, cell-based;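 further: cellular uptake of fluorescent DiI-labeled HDL measured as cell fluorescence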
[11] = Luminescence Cell-Based Dose Response HTS to Identify Inhibitors of 5'UTR Stem-Loop Driven Prion Protein mRNA Translation in H4 Neuroglioblastoma Cells. [Related pubchem assays: 1827 (Project Summary), 1813 (Primary HTS)]; type: functional
[12] = inhibitors of firefly luciferase expression or activity, dose response, H4 neuroglioma cells, luminescence (AID 1990); type: functional, cell-based
[13] = inhibitors of SNCA 5'UTR-driven reporter translation, confirmation, H4 neuroglioma cells, luminescence (AID 1988); type: functional, cell-based
[14] = test system: Vero; experiment: cells; type: functional, cell-based; conditions: Chlorocebus sabaeus
[15] = target: SWI/SNF-related matrix-associated actin-dependent regulator of chromatin subfamily A member 2 (Homo sapiens, UniProt P51531); experiment: Luminescence-based cell-based high throughput dose response assay to identify activators of the function of SWI/SNF related, matrix associated, actin dependent regulator of chromatin, subfamily a, member 2 (SMARCA2, BRM).; type: functional
[16] = Counterscreen for activators of the function of SWI/SNF related, matrix associated, actin dependent regulator of chromatin, subfamily a, member 2 (SMARCA2, BRM): Luminescence-based cell-based high throughput dose response assay to identify non-selective compounds using the VP16 reporter assay.; type: functional
[17] = target: Cyclin-dependent kinase 5/CDK5 activator 1 (Homo sapiens, UniProt Q00535); experiment: CDK5/p35 kinase inhibitors, dose response, biochemical, cherry-picked samples, set 2 (AID 504545)
[18] = target: Vasopressin V1a receptor (Homo sapiens, UniProt P37288); experiment: Counterscreen for Oxytocin Receptor (OXTR) agonists: Fluorescence-based cell-based high throughput dose response assay to identify agonists of the vasopressin 1 receptor (V1R). [Related pubchem assays: 2435 (Primary screen (OXTR agonists in singlicate)), 434991 (Counterscreen (V1R agonists in triplicate)), 2482 (Summary (OXTR agonists)) …; type: functional
[19] = target: Oxytocin receptor (Homo sapiens, UniProt P30559); experiment: Fluorescence-based cell-based high throughput dose response assay for agonists of the Oxytocin Receptor (OXTR). [Related pubchem assays: 2435 (Primary screen (OXTR agonists in singlicate)), 434991 (Counterscreen (V1R agonists in triplicate)), 2482 (Summary (OXTR agonists)), 434963 (Confirmation screen (OXTR agonists in triplicate))]; type: functional
[20] = target: T3, Corticotropin-releasing factor receptor 2/Corticotropin-releasing factor-binding protein (Homo sapiens, UniProt P24387+Q13324); experiment: activators of CRF receptor 2 with binding protein – uHTS hits, confirmation (AID 602473); type: functional; conditions: read-out: EC50_Mean
T3 sequence (Q13324 whole entry): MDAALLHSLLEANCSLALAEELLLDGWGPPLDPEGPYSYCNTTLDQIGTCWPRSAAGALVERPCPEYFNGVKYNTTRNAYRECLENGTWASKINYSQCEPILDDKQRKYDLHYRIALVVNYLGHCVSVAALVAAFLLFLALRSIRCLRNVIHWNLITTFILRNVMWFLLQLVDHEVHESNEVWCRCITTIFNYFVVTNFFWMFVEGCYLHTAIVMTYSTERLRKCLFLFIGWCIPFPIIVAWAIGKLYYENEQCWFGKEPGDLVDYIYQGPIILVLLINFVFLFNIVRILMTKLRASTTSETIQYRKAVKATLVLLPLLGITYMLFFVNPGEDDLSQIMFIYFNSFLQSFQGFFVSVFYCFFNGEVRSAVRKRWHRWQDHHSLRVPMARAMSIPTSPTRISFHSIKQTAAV
T3 sequence (P24387 whole entry): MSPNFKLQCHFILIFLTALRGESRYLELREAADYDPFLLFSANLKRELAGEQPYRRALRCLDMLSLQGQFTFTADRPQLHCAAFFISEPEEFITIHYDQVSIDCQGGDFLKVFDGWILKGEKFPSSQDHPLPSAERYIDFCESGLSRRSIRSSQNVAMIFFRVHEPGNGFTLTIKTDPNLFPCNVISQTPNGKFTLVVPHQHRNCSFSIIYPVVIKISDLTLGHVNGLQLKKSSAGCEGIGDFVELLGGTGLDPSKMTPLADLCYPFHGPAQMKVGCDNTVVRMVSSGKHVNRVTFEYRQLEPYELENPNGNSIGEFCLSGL

[21] = target: T4, Voltage-gated N-type calcium channel alpha-1B subunit/Amyloid beta A4 precursor protein-binding family A member 1 (Homo sapiens, UniProt Q00975+Q02410); experiment: disruptors of Mint-PDZ/N-type channel peptide interaction – biochemical, HTRF, set 2, SAR follow-up (AID 434980); type: functional
T4 sequence (Q00975 whole entry): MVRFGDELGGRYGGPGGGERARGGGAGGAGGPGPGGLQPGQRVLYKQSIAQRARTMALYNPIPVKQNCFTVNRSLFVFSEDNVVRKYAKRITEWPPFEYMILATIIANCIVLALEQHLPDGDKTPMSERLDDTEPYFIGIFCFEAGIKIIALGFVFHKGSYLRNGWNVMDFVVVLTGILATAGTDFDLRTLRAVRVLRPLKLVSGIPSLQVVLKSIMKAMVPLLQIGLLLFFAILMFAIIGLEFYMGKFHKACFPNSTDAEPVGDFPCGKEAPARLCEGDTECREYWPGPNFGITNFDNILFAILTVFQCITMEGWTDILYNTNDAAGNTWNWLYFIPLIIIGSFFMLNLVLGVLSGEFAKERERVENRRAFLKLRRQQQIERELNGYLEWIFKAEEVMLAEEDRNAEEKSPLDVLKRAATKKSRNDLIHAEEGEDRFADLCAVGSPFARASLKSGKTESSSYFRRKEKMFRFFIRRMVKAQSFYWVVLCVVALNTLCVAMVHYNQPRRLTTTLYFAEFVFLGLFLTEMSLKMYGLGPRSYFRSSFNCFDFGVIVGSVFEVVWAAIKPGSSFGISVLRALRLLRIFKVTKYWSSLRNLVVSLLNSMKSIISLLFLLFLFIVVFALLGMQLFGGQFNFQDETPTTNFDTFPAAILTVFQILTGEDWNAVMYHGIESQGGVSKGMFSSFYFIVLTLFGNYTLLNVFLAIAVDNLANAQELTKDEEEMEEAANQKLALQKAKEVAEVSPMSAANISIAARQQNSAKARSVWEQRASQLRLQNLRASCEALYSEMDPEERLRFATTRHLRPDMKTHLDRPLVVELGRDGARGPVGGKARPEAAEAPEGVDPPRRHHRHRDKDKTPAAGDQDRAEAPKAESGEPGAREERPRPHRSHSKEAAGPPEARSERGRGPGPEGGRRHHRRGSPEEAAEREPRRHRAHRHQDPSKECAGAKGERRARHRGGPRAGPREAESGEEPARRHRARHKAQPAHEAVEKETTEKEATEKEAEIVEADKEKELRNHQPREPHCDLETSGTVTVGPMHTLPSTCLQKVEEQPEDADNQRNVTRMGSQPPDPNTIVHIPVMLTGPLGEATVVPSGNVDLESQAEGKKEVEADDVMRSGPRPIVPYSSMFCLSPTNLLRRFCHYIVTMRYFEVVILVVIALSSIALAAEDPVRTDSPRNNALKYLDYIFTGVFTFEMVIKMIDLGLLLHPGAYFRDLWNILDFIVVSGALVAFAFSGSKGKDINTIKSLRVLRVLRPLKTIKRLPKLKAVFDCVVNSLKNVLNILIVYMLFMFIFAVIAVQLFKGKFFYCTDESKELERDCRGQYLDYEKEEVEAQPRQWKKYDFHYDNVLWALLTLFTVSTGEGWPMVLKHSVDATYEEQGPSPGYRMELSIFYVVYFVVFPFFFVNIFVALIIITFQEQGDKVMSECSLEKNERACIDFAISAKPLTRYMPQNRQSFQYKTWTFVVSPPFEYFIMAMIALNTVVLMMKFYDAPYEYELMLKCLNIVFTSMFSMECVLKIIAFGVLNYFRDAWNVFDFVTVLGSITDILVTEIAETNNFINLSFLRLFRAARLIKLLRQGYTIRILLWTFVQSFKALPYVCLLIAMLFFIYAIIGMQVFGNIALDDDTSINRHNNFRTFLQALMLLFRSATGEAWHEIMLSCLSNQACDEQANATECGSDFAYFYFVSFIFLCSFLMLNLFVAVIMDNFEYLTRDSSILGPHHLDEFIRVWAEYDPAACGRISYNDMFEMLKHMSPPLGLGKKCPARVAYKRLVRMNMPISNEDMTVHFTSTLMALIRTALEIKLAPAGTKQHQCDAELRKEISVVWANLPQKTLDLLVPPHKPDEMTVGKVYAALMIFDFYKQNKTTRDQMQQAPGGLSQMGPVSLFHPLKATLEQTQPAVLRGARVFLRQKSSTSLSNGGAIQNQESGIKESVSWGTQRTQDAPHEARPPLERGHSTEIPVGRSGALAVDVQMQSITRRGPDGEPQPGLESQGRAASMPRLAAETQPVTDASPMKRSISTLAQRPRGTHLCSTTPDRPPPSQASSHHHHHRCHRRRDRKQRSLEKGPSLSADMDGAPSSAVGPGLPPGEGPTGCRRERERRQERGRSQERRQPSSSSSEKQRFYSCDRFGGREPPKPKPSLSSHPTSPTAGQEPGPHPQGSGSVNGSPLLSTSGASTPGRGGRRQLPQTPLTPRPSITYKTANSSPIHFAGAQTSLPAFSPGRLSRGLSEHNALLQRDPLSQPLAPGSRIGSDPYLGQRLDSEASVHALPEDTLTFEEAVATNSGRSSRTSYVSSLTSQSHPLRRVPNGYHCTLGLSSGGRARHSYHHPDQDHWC
T4 sequence (Q02410 whole entry): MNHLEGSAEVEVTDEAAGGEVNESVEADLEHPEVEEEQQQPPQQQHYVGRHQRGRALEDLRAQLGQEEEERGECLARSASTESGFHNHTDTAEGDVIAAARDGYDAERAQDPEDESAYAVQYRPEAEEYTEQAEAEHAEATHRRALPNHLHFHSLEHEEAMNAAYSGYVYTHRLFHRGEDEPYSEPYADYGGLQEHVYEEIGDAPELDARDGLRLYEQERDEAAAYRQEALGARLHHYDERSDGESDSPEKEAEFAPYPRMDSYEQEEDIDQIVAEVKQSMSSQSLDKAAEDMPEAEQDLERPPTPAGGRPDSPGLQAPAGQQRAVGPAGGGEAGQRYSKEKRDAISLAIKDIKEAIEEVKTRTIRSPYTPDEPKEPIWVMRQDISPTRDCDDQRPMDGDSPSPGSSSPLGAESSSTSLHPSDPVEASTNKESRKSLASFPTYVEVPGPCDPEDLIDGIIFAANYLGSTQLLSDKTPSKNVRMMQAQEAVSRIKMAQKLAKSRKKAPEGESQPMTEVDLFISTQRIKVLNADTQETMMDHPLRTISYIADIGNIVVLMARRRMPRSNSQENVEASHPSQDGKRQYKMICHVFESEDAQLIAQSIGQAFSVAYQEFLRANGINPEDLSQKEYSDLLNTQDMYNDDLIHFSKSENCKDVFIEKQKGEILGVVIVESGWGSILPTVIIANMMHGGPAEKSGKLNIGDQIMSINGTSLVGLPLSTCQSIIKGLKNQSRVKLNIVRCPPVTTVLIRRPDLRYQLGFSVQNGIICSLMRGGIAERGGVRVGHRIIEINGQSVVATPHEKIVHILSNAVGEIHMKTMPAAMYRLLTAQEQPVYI

[22] = target: T4, Voltage-gated N-type calcium channel alpha-1B subunit/Amyloid beta A4 precursor protein-binding family A member 1; experiment: disruptors of Mint-PDZ/N-type channel peptide interaction – biochemical, HTRF, SAR follow-up (AID 2489); type: functional
[23] = target: Neurotensin receptor type 1 (Homo sapiens, UniProt P30989); type: functional;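 further: Image-based confirmatory dose-response assay measuring agonist activity at NTR1; NTR1-expressing U2OS osteosarcoma cells imaged for beta-arrestin GFP spot formation; agonist potency where compounds increase beta-arrestin recruitment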
[24] = target: Cytochrome P450 2C9 (Homo sapiens, UniProt P11712); conditions: Potency
[25] = target: Cytochrome P450 3A4 (Homo sapiens, UniProt P08684); conditions: Potency;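 further: confirmatory qHTS run detecting inhibitors and substrates of CYP3A4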
Cytochrome P450 3A4, sequence (P08684 whole entry): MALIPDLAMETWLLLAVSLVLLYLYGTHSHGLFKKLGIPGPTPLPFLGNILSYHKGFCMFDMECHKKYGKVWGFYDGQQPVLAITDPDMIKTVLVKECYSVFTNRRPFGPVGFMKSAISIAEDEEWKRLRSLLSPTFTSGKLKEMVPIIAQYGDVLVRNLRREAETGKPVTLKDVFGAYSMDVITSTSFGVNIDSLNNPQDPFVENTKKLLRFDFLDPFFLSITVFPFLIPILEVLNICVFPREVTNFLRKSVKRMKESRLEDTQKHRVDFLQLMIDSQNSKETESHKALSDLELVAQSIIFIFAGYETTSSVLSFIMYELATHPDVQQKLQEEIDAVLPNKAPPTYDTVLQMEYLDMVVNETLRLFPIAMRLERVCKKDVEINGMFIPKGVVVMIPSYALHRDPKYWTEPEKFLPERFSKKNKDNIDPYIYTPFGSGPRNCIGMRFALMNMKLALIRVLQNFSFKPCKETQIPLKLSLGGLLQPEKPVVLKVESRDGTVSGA

[26] = target: Cytochrome P450 2D6 (Homo sapiens, UniProt P10635); experiment: qHTS Assay for Inhibitors and Substrates of Cytochrome P450 2D6. [Related pubchem assays: 410 ]; type: ADME; conditions: read-out: Potency
Cytochrome P450 2D6, sequence (P10635 whole entry): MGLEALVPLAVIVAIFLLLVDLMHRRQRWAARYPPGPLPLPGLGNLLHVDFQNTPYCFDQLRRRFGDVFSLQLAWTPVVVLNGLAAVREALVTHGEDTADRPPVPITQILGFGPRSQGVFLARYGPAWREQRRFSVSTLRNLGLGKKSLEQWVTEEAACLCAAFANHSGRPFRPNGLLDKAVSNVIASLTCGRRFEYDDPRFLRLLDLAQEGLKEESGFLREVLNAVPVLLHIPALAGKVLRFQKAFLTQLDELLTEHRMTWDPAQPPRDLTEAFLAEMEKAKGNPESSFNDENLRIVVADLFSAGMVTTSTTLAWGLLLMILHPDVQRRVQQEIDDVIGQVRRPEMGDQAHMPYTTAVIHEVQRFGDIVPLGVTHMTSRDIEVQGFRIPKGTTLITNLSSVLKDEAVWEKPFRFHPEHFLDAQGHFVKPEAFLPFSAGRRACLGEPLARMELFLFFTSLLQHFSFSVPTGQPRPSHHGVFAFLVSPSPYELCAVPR

[27] = target: Lysosomal acid glucosylceramidase (Homo sapiens, UniProt P04062); experiment: Dose response cell-based high throughput screening assay to identify enhancers of beta-glucosidase activity. [Related pubchem assays: 784 ]; type: functional

Question: What does the source list for Cc1cc(NC(=O)c2cccc(F)c2)n(-c2nc(=O)cc(C)[nH]2)n1?
Answer: EC50 [1]: > 49.7 µM (inactive); EC50 [2]: > 49.7 µM (inactive)

Question: With O=c1c2ccccc2nc(/C=C/c2cccnc2)n1CCc1ccccc1 as the compound, how does the IC50 [3] read?
Answer: 17.5 µM (active)

Question: And the EC50 [4]?
Answer: 12 µM (active)

Question: What about the AC50 [5] of the same compound?
Answer: 60.6 µM (active)

Question: Which Ki [6] does the source give for COC(=O)c1ccc(COc2cc3oc(=O)cc(-c4ccccc4)c3cc2Cl)cc1 here?
Answer: 28.9 µM (inactive)

Question: Which AC50 [7] does the source give for CCOC(=O)CC(C#N)c1cn(C)c2ccccc12 (configuration not stated) here?
Answer: 7.18 µM (active)

Question: Which AC50 [8] does the source give for CN(C)S(=O)(=O)c1ccc(NC(=S)NC(=O)Cc2ccccc2)cc1 here?
Answer: 66.4 µM (active)

Question: Which IC50 [9] does the source give for CCc1ccc(-n2ncc(Cl)c(Oc3ccc(OC)cc3)c2=O)cc1 here?
Answer: 3.9 µM (active)

Question: For Cc1cc(SC(C)C(=O)Nc2ncc(Cl)cc2Cl)nc2ccccc12 (configuration not stated), which AC50 [10] is on record?
Answer: 0.633 µM (active)

Question: What about the EC50 [11] of the same compound?
Answer: > 120 µM (not active)

Question: What about the EC50 [12] of the same compound?
Answer: > 120 µM (not active)

Question: And the EC50 [13]?
Answer: 15.1 µM (active)

Question: And the IC50 [14]?
Answer: 19.5 µM (active)

Question: Which EC50 [15] does the source give for CC(C)[C@H](CO)Nc1nc(NCc2ccc(S(N)(=O)=O)cc2)c2ncn(C(C)C)c2n1 here?
Answer: > 91.2 µM (inactive)

Question: And the EC50 [16]?
Answer: > 91.2 µM (inactive)

Question: And the AC50 [17]?
Answer: 1.93 µM (active)

Question: With CC(=O)c1c(C)[nH]c(C(=O)CN2C(=O)NC(C)(c3ccc(C)cc3)C2=O)c1C (configuration not stated) as the compound, how does the EC50 [18] read?
Answer: > 29.9 µM (not active)

Question: And the EC50 [19]?
Answer: > 29.9 µM (not active)

Question: What about the EC50 [20] of the same compound?
Answer: 11.6 µM (active)

Question: For COc1ccccc1CNC(=O)COC(=O)c1cccc2ccccc12, which IC50 [21] is on record?
Answer: 19.4 µM (active)

Question: And the IC50 [22]?
Answer: > 56.8 µM (inactive)

Question: With Cc1cc(C)n(-c2nc(N(c3ccccc3)c3ccccc3)nc(-n3nc(C)cc3C)n2)n1 as the compound, how does the EC50 [23] read?
Answer: 6.21 µM (active)

Question: Which results are given for CCCCCCCC1=Cc2ccccc2C(CC(C)=O)N1C(=O)OC (configuration not stated)?
Answer: AC50 [24]: 6.31 µM (inconclusive); AC50 [25]: 3.16 µM (inconclusive); AC50 [26]: 3.98 µM (inconclusive)

Question: Which EC50 [27] does the source give for Cc1cc(-c2nnc(SCc3cccnc3)o2)no1 here?
Answer: > 50 µM (not active)
